≈ marks a conversion by molar mass, not a printed value.

Our source for the MIC values is US10471046B2, “Method for treating, preventing, or reducing the risk of skin infection” (Melinta Subsidiary Corp., priority 2014, dated 2019).

The test system of the test is S. aureus. In words: Minimum inhibitory concentrations (MICs) for S. aureus of exemplary compounds (Table 2). In kind it is cell-based. Particulars: Staphylococcus aureus, minimum inhibitory concentrations for S. aureus; read-out: MICs. Summed up: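 MICs (μg/mL) against S. aureus come from microtiter-tray dilution susceptibility testing per NCCLS M7-A5, comparing growth with and without compound.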
With `CC(=O)NC[C@H]1CN(c2ccc(-c3ccc(CNCC4CCC=CO4)cc3)c(F)c2)C(=O)O1` (stereo partly drawn) [Compound 4131, N-[3-(4′-{[(3,4-Dihydro-2H-pyran-2-ylmethyl)-amino]-methyl}-2-fluoro-biphenyl-4-yl)-2-oxo-oxazolidin-5-(S)-ylmethyl]-acetamide], the MIC turned out to be 1 µg/mL (≈ 2.21 µM).

Regarding `CC(=O)NC[C@H]1CC(c2ccc(-c3ccc(CNCc4ccncc4)cc3)cc2)=NO1` [Compound 4132, N-[3-(4′-{[(Pyridin-4-ylmethyl)-amino]-methyl}-biphenyl-4-yl)-4,5-dihydro-isoxazol-5-(R)-ylmethyl]-acetamide], the MIC is 4 µg/mL (≈ 9.65 µM).

Take `CC(=O)NC[C@H]1CC(c2ccc(-c3ccc(CNCc4ccncc4)cc3)nc2)=NO1` [Compound 4133, N-{3-[6-(4-{[(Pyridin-4-ylmethyl)-amino]-methyl}-phenyl)-pyridin-3-yl]-4,5-dihydro-isoxazol-5-(R)-ylmethyl}-acetamide]: the MIC came out at 128 µg/mL (≈ 308 µM).

As to `CC(=O)NC[C@H]1CN(c2ccc(-c3ccc(CNCc4ccncc4)cc3)nc2)C(=O)O1` [Compound 4134, N-{2-Oxo-3-[6-(4-{[(pyridin-4-ylmethyl)-amino]-methyl}-phenyl)-pyridin-3-yl]-oxazolidin-5-(S)-ylmethyl}-acetamide], the MIC came out at 16 µg/mL (≈ 37.1 µM).

Turning to `CC(=O)NC[C@H]1CN(c2ccc(-c3ccc(CNCc4cnccc4N)cc3)c(F)c2)C(=O)O1` [Compound 4135, N-[3-(4′-{[(4-Amino-pyridin-3-ylmethyl)-amino]-methyl}-2-fluoro-biphenyl-4-yl)-2-oxo-oxazolidin-5-(S)-ylmethyl]-acetamide], the MIC was 4 µg/mL (≈ 8.63 µM).

Take `CC(=O)NC[C@H]1CN(c2ccc(-c3ccc(CNS(=O)(=O)CCN4C(=O)c5ccccc5C4=O)cc3)c(F)c2)C(=O)O1` [Compound 4136, N-[3-(4′-{[2-(1,3-Dioxo-1,3-dihydro-isoindol-2-yl)-ethanesulfonylamino]-methyl}-2-fluoro-biphenyl-4-yl)-2-oxo-oxazolidin-5-(S)-ylmethyl]-acetamide]: the MIC turned out to be 8 µg/mL (≈ 13.5 µM).

`CC(=O)NC[C@H]1CN(c2ccc(-c3ccc(CNCc4cccs4)cc3)c(F)c2)C(=O)O1` [Compound 4137, N-[3-(2-Fluoro-4′-{[(thiophen-2-ylmethyl)-amino]-methyl}-biphenyl-4-yl)-2-oxo-oxazolidin-5-(S)-ylmethyl]-acetamide]: the MIC was 0.5 µg/mL (≈ 1.1 µM).

Take `CC(=O)NC[C@H]1CN(c2ccc(-c3ccc(CNCc4ccc5cccnc5c4)cc3)c(F)c2)C(=O)O1` [Compound 4138, N-[3-(2-Fluoro-4′-{[(quinolin-7-ylmethyl)-amino]-methyl}-biphenyl-4-yl)-2-oxo-oxazolidin-5-(S)-ylmethyl]-acetamide]: the MIC came to 1 µg/mL (≈ 2.01 µM).

With `CC(=O)NC[C@H]1CN(c2ccc(-c3ccc(CNCc4nn(C)cc4Cl)cc3)c(F)c2)C(=O)O1` [Compound 4139, N-[3-(4′-{[(4-Chloro-1-methyl-1H-pyrazol-3-ylmethyl)-amino]-methyl}-2-fluoro-biphenyl-4-yl)-2-oxo-oxazolidin-5-(S)-ylmethyl]-acetamide], the MIC is 2 µg/mL (≈ 4.12 µM).

As to `CC(=O)NC[C@H]1CN(c2ccc(-c3ccc(CNCc4nc(C)no4)cc3)c(F)c2)C(=O)O1` [Compound 4140, N-[3-(2-Fluoro-4′-{[(3-methyl-[1,2,4]oxadiazol-5-ylmethyl)-amino]-methyl}-biphenyl-4-yl)-2-oxo-oxazolidin-5-(S)-ylmethyl]-acetamide], the MIC was 2 µg/mL (≈ 4.41 µM).

On to `CC(=O)NC[C@H]1CN(c2ccc(-c3ccc(CNCc4noc(C)n4)cc3)c(F)c2)C(=O)O1` [Compound 4141, N-[3-(2-Fluoro-4′-{[(5-methyl-[1,2,4]oxadiazol-3-ylmethyl)-amino]-methyl}-biphenyl-4-yl)-2-oxo-oxazolidin-5-(S)-ylmethyl]-acetamide], for which the MIC was determined as 2 µg/mL (≈ 4.41 µM).

With `CC(=O)NC[C@H]1CN(c2ccc(-c3ccc(CNC(=O)c4ccncc4)cc3)c(F)c2)C(=O)O1` [Compound 4142, N-{4′-[5-(S)-(Acetylamino-methyl)-2-oxo-oxazolidin-3-yl]-2′-fluoro-biphenyl-4-ylmethyl}-isonicotinamide], the MIC was 2 µg/mL (≈ 4.32 µM).

Regarding `CC(=O)NC[C@H]1CN(c2ccc(-c3ccc(C(=O)NCc4nccs4)cc3)c(F)c2)C(=O)O1` [Compound 4143, 4′-[5-(S)-(Acetylamino-methyl)-2-oxo-oxazolidin-3-yl]-2′-fluoro-biphenyl-4-carboxylic acid (thiazol-2-ylmethyl)-amide], the MIC is 1 µg/mL (≈ 2.13 µM).

`CC(=O)NC[C@H]1CN(c2ccc(-c3ccc(CNCc4nn(-c5ccccc5)nc4C)cc3)c(F)c2)C(=O)O1` [Compound 4146, N-[3-(2-Fluoro-4′-{[(5-methyl-2-phenyl-2H-[1,2,3]triazol-4-ylmethyl)-amino]-methyl}-biphenyl-4-yl)-2-oxo-oxazolidin-5-(S)-ylmethyl]-acetamide]: the MIC was found to be 4 µg/mL (≈ 7.57 µM).

With `CC(=O)NC[C@H]1CN(c2ccc(-c3ccc(CNCc4ccc(-n5cccc5)cc4)cc3)c(F)c2)C(=O)O1` [Compound 4147, N-(3-{2-Fluoro-4′-[(4-pyrrol-1-yl-benzylamino)-methyl]-biphenyl-4-yl}-2-oxo-oxazolidin-5-(S)-ylmethyl)-acetamide], the MIC worked out at 4 µg/mL (≈ 7.8 µM).

In the case of `CC(=O)NC[C@H]1CN(c2ccc(-c3ccc(CNCCCc4cn[nH]c4C)cc3)c(F)c2)C(=O)O1` [Compound 4148, N-[3-(2-Fluoro-4′-{[3-(5-methyl-1H-pyrazol-4-yl)-propylamino]-methyl}-biphenyl-4-yl)-2-oxo-oxazolidin-5-(S)-ylmethyl]-acetamide], the MIC came to 2 µg/mL (≈ 4.17 µM).

For `CC(=O)NC[C@H]1CN(c2ccc(-c3ccc(CCNCc4ccncc4)cc3)c(F)c2)C(=O)O1` [Compound 4149, N-[3-(2-Fluoro-4′-{2-[(pyridin-4-ylmethyl)-amino]-ethyl}-biphenyl-4-yl)-2-oxo-oxazolidin-5-(S)-ylmethyl]-acetamide], the MIC is 1 µg/mL (≈ 2.16 µM).

As to `COc1ncccc1CNCc1ccc(-c2ccc(N3C[C@H](CNC(C)=O)OC3=O)cc2F)cc1` [Compound 4151, N-[3-(2-Fluoro-4′-{[(2-methoxy-pyridin-3-ylmethyl)-amino]-methyl}-biphenyl-4-yl)-2-oxo-oxazolidin-5-(S)-ylmethyl]-acetamide], the MIC is 2 µg/mL (≈ 4.18 µM).

`CC(=O)NC[C@H]1CN(c2ccc(-c3ccc(CNCc4cccnc4N)cc3)c(F)c2)C(=O)O1` [Compound 4152, N-[3-(4′-{[(2-Amino-pyridin-3-ylmethyl)-amino]-methyl}-2-fluoro-biphenyl-4-yl)-2-oxo-oxazolidin-5-(S)-ylmethyl]-acetamide]: the MIC stood at 2 µg/mL (≈ 4.31 µM).

As for `CC(=O)NC[C@H]1CN(c2ccc(-c3ccc(CNCc4nccs4)c(F)c3)c(F)c2)C(=O)O1` [Compound 4154, N-[3-(2,3′-Difluoro-4′-{[(thiazol-2-ylmethyl)-amino]-methyl}-biphenyl-4-yl)-2-oxo-oxazolidin-5-(S)-ylmethyl]-acetamide], the MIC came to 1 µg/mL (≈ 2.12 µM).

With `CC(=O)NC[C@H]1CN(c2ccc(-c3ccc(CNCc4ccncc4)c(F)c3)c(F)c2)C(=O)O1` [Compound 4155, N-[3-(2,3′-Difluoro-4′-{[(pyridin-4-ylmethyl)-amino]-methyl}-biphenyl-4-yl)-2-oxo-oxazolidin-5-(S)-ylmethyl]-acetamide], the MIC came to 2 µg/mL (≈ 4.29 µM).
